Source: article PMC8765781, “A platform of assays for the discovery of anti-Zika small-molecules with activity in a 3D-bioprinted outer-blood-retina model” (PLoS ONE, 2022)
Like-named read-outs stand apart in the source and are kept apart here.

Tested on: wild-type ZIKV (Ugandan MR766 strain) in Vero cells
Experiment: ZIKV cytopathic effect (CPE) inhibition qHTS assay, CellTiter-Glo readout
Format: cell-based, Zika virus
[1] = Zika virus, Vero, read-out: Log AC50 (M) (converted)

Row | Compound | CC-v2 (curve class classification of the dose response curve) | Efficacy | AC50 (Zika virus, Vero) [M] | AC50 [1] [M] | Curve class | AC50 (Zika virus, Vero, read-out: Log AC50 (converted)) [M] | Emax (Zika virus, Vero, read-out: Max response) [%]
1 | COc1c2c(c(C)c3c1C(=O)OC3)OC1(C)CC(O)C34OC(OC)(CCC3(C)C1C2)OC4(C)CO (centres unmarked) [NCGC00380890-01] | -3 | -69.031 | 1.42e-05 | 1.42e-05 | – | – | –
2 | C=C(C(=O)O)[C@@H]1CC[C@@]2(C)CCC[C@@](C)(O)[C@@H]2C1 [NCGC00169889-02] | – | -77.65 | 2.91e-05 | – | -3 | 2.91e-05 | -0.865
3 | C/C=C(\C)C(=O)O[C@H]1C=CC(=O)O[C@H]1/C=C/[C@@H](O)[C@H](C)O [NCGC00380589-01] | – | -37.007 | 6.51e-05 | 6.51e-05 | – | – | –
4 | COc1cc2c(NC3CCN(C(C)C)CC3)nc(C3CCCCC3)nc2cc1OCCCN1CCCC1 [NCGC00189220-03] | – | -26.68 | 7.31e-05 | 7.31e-05 | – | – | –
5 | CC1(C)CC[C@]2(C(=O)O)CC[C@]3(C)C(=CCC4[C@@]5(C)CC[C@H](O[C@@H]6O[C@H](C(=O)O)[C@@H](O[C@@H]7OC[C@@H](O)[C@H](O)[C@H]7O)[C@H](O)[C@H]6O)C(C)(C)C5CC[C@]43C)C2C1O (some centres unmarked) [NCGC00179805-02] | -3 | -39.908 | 2.73e-05 | 2.73e-05 | – | – | –
6 | CC(C)=CCC/C(C)=C/COCC1OC(n2ccc(=O)[nH]c2=O)C(O)C1O (centres unmarked) [NCGC00386057-01] | – | -46.076 | 4.53e-05 | 4.53e-05 | – | – | –
7 | C[C@@H]1O[C@@H](O[C@H]2[C@H](O[C@H]3CC[C@@]4(C)C(CC[C@]5(C)C4C=C[C@]46OC[C@@]7(CCC(C)(C)C[C@H]74)[C@@H](O[C@@H]4O[C@@H](C)[C@H](O)[C@@H](O)[C@H]4O)C[C@]65C)[C@]3(C)CO)O[C@H](CO)[C@@H](O)[C@@H]2O[C@@H]2O[C@H](CO)[C@@H](O)[C@H](O)[C@H]2O)[C@H](O)[C@H](O)[C@H]1O (some centres unmarked) [NCGC00384707-01] | – | -27.107 | 6.18e-06 | 6.18e-06 | – | – | –
8 | C=CC(=O)N1CCCN(c2cc(NCCC(=O)O)nc(-c3ccccn3)n2)CC1 [NCGC00420854-01] | – | -33.164 | 5.8e-05 | 5.8e-05 | – | – | –
9 | Cc1cc(N2CCN(C(=O)Oc3ccc(-c4ccccc4)cn3)CC2)c2ccccc2n1 [NCGC00386928-01] | -3 | -62.282 | – | – | – | – | –
10 | CCOC(=O)C1=C(N)Oc2ccc(Cl)cc2C1C(C#N)C(=O)OCC (centres unmarked) [NCGC00387181-02] | -2.2 | -45.481 | 3.66e-05 | 3.66e-05 | – | – | –
11 | Cc1cc(C)c2nc(-c3ccccn3)cc(C(=O)Nc3ccc([S+](=O)([O-])Nc4onc(C)c4C)cc3)c2c1 [NCGC00370745-03] | – | -23.798 | 3.26e-05 | 3.26e-05 | – | – | –
12 | C=C(C)C1=C[C@@]2(C)C(=CC1=O)CC[C@@H](O)[C@@H]2C [NCGC00180357-02] | – | -25.033 | 1.46e-05 | 1.46e-05 | – | – | –
13 | CO[C@H]1/C=C/C=C/C=C/C[C@H](OC(=O)[C@@H](C)NC(=O)C2CCCCC2)[C@H](C)[C@@H](O)/C(C)=C\CCc2cc(O)cc(c2)NC(=O)C1 [NCGC00380800-01] | -1.2 | -73.026 | 5.44e-06 | 5.44e-06 | – | – | –
14 | CC(=O)O[C@H]1CC2C(COC(=O)CC(C)C)=CO[C@@H](OC(=O)CC(C)C)C2[C@]12CO2 (some centres unmarked) [NCGC00385012-01] | -3 | -34.82 | 3.17e-05 | 3.17e-05 | – | – | –
15 | C=C1C(=O)CC2OC2(C)CC2OC(=O)C(=C)C2C(O)C1OC(=O)/C(C)=C\C (centres unmarked) [NCGC00380095-01] | -3 | -52.521 | 4.53e-05 | 4.53e-05 | – | – | –
16 | C=C1C(=O)O[C@@H]2C(OC(=O)/C(C)=C\C)/C(C)=C\C(=O)/C=C(\C)C[C@H](O)[C@@H]12 (some centres unmarked) [NCGC00381208-01] | -3 | -35.291 | 5.08e-05 | 5.08e-05 | – | – | –
